Source: US9113629B2, “4-amino-6-(4-substituted-phenyl)-picolinates and 6-amino-2-(4-substituted-phenyl)-pyrimidine-4-carboxylates and their use as herbicides” (DOW AGROSCIENCES LLC, priority 2013, dated 2015)
Read-outs that look alike come from different tables or passages of the source.

Columns and labels:
[1] = test system: Key Grass and Sedge Weeds as well as Grass Crops; assay: Post-emergent Test II herbicidal activity (Table 6); type: in vivo; settings: post-emergence, 336 h; for pest or weed control at 70 g/ha: application rate 70 g ai/ha; for pest or weed control at 140 g/ha: application rate 140 g ai/ha
Outline: (§1)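 Spray rates: a highest rate plus ½×, ¼×, ⅛×, 1/16×, all delivered at 187 L/ha to plants at the first–second true leaf stage. Readout is a visual percent injury score at 14 d, where 100 means complete kill.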

[2] = test system: Key Broadleaf Weed and Crop Species; assay: Post-emergent Test II herbicidal activity (Table 5); type: in vivo; settings: post-emergence, 336 h, post-emergent, 14 days after application; for pest or weed control at 70 g/ha: 70 g ai/ha; for pest or weed control at 140 g/ha: 140 g ai/ha
Outline: as §1

[3] = Triticum aestivum, TRZSS (wheat), read-out: Visual Growth Reduction (%) 14 Days After Application, TRZSS
[4] = CYPES: yellow nutsedge (Cyperus esculentus), read-out: Visual Growth Reduction (%) 14 Days After Application, CYPES
[5] = DIGSA: crabgrass (Digitaria sanguinalis), read-out: Visual Growth Reduction (%) 14 Days After Application, DIGSA
[6] = ECHCG: barnyardgrass (Echinochloa crus-galli), read-out: Visual Growth Reduction (%) 14 Days After Application, ECHCG
[7] = ORYSA: rice (Oryza sativa), read-out: Visual Growth Reduction (%) 14 Days After Application, ORYSA
[8] = SETFA: giant foxtail (Setaria faberi), read-out: Visual Growth Reduction (%) 14 Days After Application, SETFA
[9] = SORVU: grain sorghum (Sorghum vulgare), read-out: Visual Growth Reduction (%) 14 Days After Application, SORVU
[10] = ZEAMX: maize, corn (Zea mays), read-out: Visual Growth Reduction (%) 14 Days After Application, ZEAMX
[11] = ABUTH: velvetleaf (Abutilon theophrasti), read-out: Visual Growth Reduction (%) 14 Days After Application ABUTH
[12] = AMARE: redroot pigweed (Amaranthus retroflexus), read-out: Visual Growth Reduction (%) 14 Days After Application AMARE
[13] = BRSNN: oilseed-rape, canola (Brassica napus), read-out: Visual Growth Reduction (%) 14 Days After Application BRSNN
[14] = CHEAL: lambsquarters (Chenopodium album), read-out: Visual Growth Reduction (%) 14 Days After Application CHEAL
[15] = EPHHL: wild poinsettia (Euphorbia heterophylla), read-out: Visual Growth Reduction (%) 14 Days After Application EPHHL
[16] = HELAN: sunflower (Helianthus annuus), read-out: Visual Growth Reduction (%) 14 Days After Application HELAN
[17] = VIOTR: wild pansy (Viola tricolor), read-out: Visual Growth Reduction (%) 14 Days After Application VIOTR

| Structure (SMILES) | pest or weed control at 70 g/ha [1, 3] | pest or weed control at 140 g/ha [1, 3] | pest or weed control at 70 g/ha [1, 4] | pest or weed control at 140 g/ha [1, 4] | pest or weed control at 70 g/ha [1, 5] | pest or weed control at 140 g/ha [1, 5] | pest or weed control at 70 g/ha [1, 7] | pest or weed control at 140 g/ha [1, 7] | pest or weed control at 70 g/ha [1, 8] | pest or weed control at 140 g/ha [1, 8] | pest or weed control at 70 g/ha [1, 9] | pest or weed control at 140 g/ha [1, 9] | pest or weed control at 70 g/ha [1, 10] | pest or weed control at 140 g/ha [1, 10] | melting point | pest or weed control at 70 g/ha [2, 11] | pest or weed control at 140 g/ha [2, 11] | pest or weed control at 70 g/ha [2, 12] | pest or weed control at 140 g/ha [2, 12] | pest or weed control at 70 g/ha [2, 13] | also measured |
| --- | --- | --- | --- | --- | --- | --- | --- | --- | --- | --- | --- | --- | --- | --- | --- | --- | --- | --- | --- | --- | --- |
| Cc1c(-c2ccc(I)cc2)nc(C(=O)O)c(Cl)c1N [Compound 116, 4-Amino-3-chloro-6-(4-iodophenyl)-5-methylpicolinic acid] | 45 to 59% | 45 to 59% | 0 to 29% | 0 to 29% | 45 to 59% | 60 to 74% | 0 to 29% | 0 to 29% | 45 to 59% | 60 to 74% | 30 to 44% | 45 to 59% | 45 to 59% | 60 to 74% | 179.5 to 181 °C | 95 to 100% | 95 to 100% | 75 to 84% | 85 to 94% | 85 to 94% | pest or weed control at 70 g/ha [1, 6]: 45 to 59%; pest or weed control at 140 g/ha [1, 6]: 60 to 74%; pest or weed control at 140 g/ha [2, 13]: 95 to 100%; pest or weed control at 70 g/ha [2, 14]: 85 to 94%; pest or weed control at 140 g/ha [2, 14]: 85 to 94%; pest or weed control at 70 g/ha [2, 15]: 0 to 29%; pest or weed control at 140 g/ha [2, 15]: 0 to 29%; pest or weed control at 70 g/ha [2, 16]: 95 to 100%; pest or weed control at 140 g/ha [2, 16]: 95 to 100%; pest or weed control at 70 g/ha [2, 17]: 0 to 29%; pest or weed control at 140 g/ha [2, 17]: 0 to 29% |
| Nc1c(Cl)c(C(=O)O)nc(-c2ccc(Br)cc2)c1Cl [Compound 125] | 60 to 74% | 60 to 74% | 95 to 100% | 95 to 100% | 60 to 74% | 60 to 74% | 0 to 29% | 0 to 29% | 85 to 94% | 95 to 100% | 60 to 74% | 85 to 94% | 60 to 74% | 60 to 74% | 164.9 to 166.1 °C | 95 to 100% | 95 to 100% | 95 to 100% | 95 to 100% | 95 to 100% | pest or weed control at 140 g/ha [2, 13]: 95 to 100%; pest or weed control at 70 g/ha [2, 14]: 95 to 100%; pest or weed control at 140 g/ha [2, 14]: 95 to 100%; pest or weed control at 70 g/ha [2, 15]: 30 to 44%; pest or weed control at 140 g/ha [2, 15]: 45 to 59%; pest or weed control at 70 g/ha [2, 16]: 95 to 100%; pest or weed control at 140 g/ha [2, 16]: 95 to 100%; pest or weed control at 70 g/ha [2, 17]: 0 to 29%; pest or weed control at 140 g/ha [2, 17]: 0 to 29% |
| Nc1c(F)c(-c2cc(F)c(I)cc2F)nc(C(=O)O)c1Cl [Compound 69] | 60 to 74% | 85 to 94% | 45 to 59% | 95 to 100% | 95 to 100% | 95 to 100% | 0 to 29% | 0 to 29% | 95 to 100% | 95 to 100% | 95 to 100% | 95 to 100% | 75 to 84% | 75 to 84% | 159 to 161 °C | 85 to 94% | 85 to 94% | 95 to 100% | 95 to 100% | 95 to 100% | pest or weed control at 70 g/ha [1, 6]: 95 to 100%; pest or weed control at 140 g/ha [1, 6]: 95 to 100%; pest or weed control at 140 g/ha [2, 13]: 95 to 100%; pest or weed control at 70 g/ha [2, 14]: 95 to 100%; pest or weed control at 140 g/ha [2, 14]: 95 to 100%; pest or weed control at 70 g/ha [2, 15]: 95 to 100%; pest or weed control at 140 g/ha [2, 15]: 95 to 100%; pest or weed control at 70 g/ha [2, 16]: 95 to 100%; pest or weed control at 140 g/ha [2, 16]: 95 to 100%; pest or weed control at 70 g/ha [2, 17]: 95 to 100%; pest or weed control at 140 g/ha [2, 17]: 95 to 100% |
